Data: patent US20140227375A1, “PIP-2 Inhibition-Based Antiviral and Anti-Hyperlipidemic Therapies” (priority 2008, published 2014)

Molecular target: HCV replication
Test: Luciferase reporter-linked transient HCV replication assay (FL-J6/JFH-5′C19Rluc2AUbi RNA)
Assay type: cell-based, hepatitis C virus (HCV)
Experimental: FIGS. 7A-7B. A PIP-2 ligand inhibits HCV replication in a dose-dependent manner. Luciferase reporter-linked HCV replication assay. Huh 7.5 cells were electroporated with 10 ug of in vitro-transcribed wild type, FL-J6/JFH-5′C19Rluc2AUbi RNAs. Electroporated cells were treated with […] of neomyin. Renilla luciferase activities were measured at 5 days after electroporation. Alamar blue assays were performed to compare relative cell viabilities.
The NS5A PIP2 interaction is amenable to pharmacologic disruption. […] Such inhibitors represent a valuable new class of anti-HCV agents to be included in future therapeutic cocktails designed to maximize efficiency of, and minimize resistance to, therapies for treating hepatitis C.
The electroporated cells were diluted in 18 ml of cell culture medium. 1 ml of cells was aliquoted in 6 well tissue culture plates. Electroporated cells were treated with 0, 172, 345, 689, 1378, and 2756 μM of neomyin for 5 days. Renilla luciferase activities were measured by using renilla luciferase kit from Promega (Madison, Wis.).

For neomycin, the EC50 (Renilla luciferase activity 5 days after electroporation, read-out: EC50 against HCV replication) was 200 µM and the “inhibition of HCV genome replication” value (increasing concentrations of neomycin (0-2756 μM), 5 days) was “dose-dependent increase in inhibition of HCV genome replication”.
